Source: US20100069335A1, “Prevention and Treatment of Ophthalmic Complications of Diabetes” (priority 2005, published 2010)

What was measured:
[1] = tested on: Human lens epithelial cells (HLEC); experiment: Viability of human lens epithelial cells subjected to glucose-induced toxicity (Trypan Blue); format: cell-based; settings: 50 mM glucose; 4 mM MSM, 0.5 mM EDTA; 16 hrs; glucose alone decreased viability by 30%
Protocol: Cell Culture and Treatment. Human lens epithelial […] extended life span were cultured in DMEM medium containing 0.1% gentamicin and supplemented with 20% fetal bovine serum at 37° C. in a 5% CO2-humidified atmosphere. 1.0×10^5 […] (Passage 5) were seeded in 12-well plate overnight prior to the addition of glucose, MSM or MSM/EDTA. The wells were divided into six groups of two wells. Cell viability. Cell survival was determined by Trypan Blue staining and counted with a hemocytometer. Dead cells stain blue, while live cells exclude Trypan Blue. Cell viability is represented as a percentage corresponding to the number of live cells divided by the total cells. […] DMEM+20% FBS+0.1% gentamicin • 400 mM MSM: 376 mg/10 ml PBS for stock • 50 mM EDTA (Tetrasodium Salt): 190 mg/10 ml PBS for stock, pH 7.2 • 5 M Glucose: 1800 mg/10 ml of dd H2O Experimental Procedure. 1. Seeded 0.5×10^5/ml of HLEC (Passage 5) into three 12-well plates, then incubated at 37° C. overnight. 2. Changed medium to 2% FBS DMEM medium. 3. […] They were harvested with 0.25% Trypsin-EDTA and cell viability was determined with Trypan-Blue.

rat lens organ culture = experiment: Glucose-induced toxicity in rat lens organ culture (RLCE); format: cell-based; settings: 50 mM glucose, 4 mM MSM, 0.5 mM EDTA
Protocol: Animals. Male Sprague-Dawley rats weighing 200-250 g were obtained from Central Animal Care Services at the University of Texas Medical Branch. The NIH guidelines and ARVO statement for the Use of Animals in Ophthalmic and Vision Research were strictly followed for the welfare of the animals. Rats were sacrificed with using 100% carbon dioxide at a low flow rate (25-30% of the volume of the cage per minute) with two rats in a cage. After the rats stopped breathing for about 2 minutes, the eyeballs were removed. […] Experimental Procedure. 1. Sacrificed four rats, removed the eyeballs as soon as possible and put them into a tube containing PBS with 0.1% gentamicin. 2. Dissected the lenses immediately and washed with 1% penicillin/streptomycin in sterile with PBS. 3. Transferred each lens to a well of a 12-well plate (2 ml of medium per well, i.e., per lens). Each treatment was performed in 2 wells. The lenses were cultured in medium 199 containing 0.1% gentamicin at 37° C. in a 5% CO2 humidified atmosphere. Reagents as described above were added to three groups of two wells to give the following three treatments: • 50 mM glucose • 50 mM glucose+4 mM MSM • 50 mM glucose+4 mM MSM+0.5 mM EDTA One group of two wells was left untreated as a control. […] Photographs were taken using a Multidimensional Imaging System, and the level of light transparency through the lenses was determined

[2] = at 79° F.; cited from earlier work

**Q.** With CS(C)(=O)=O [MSM, methylsulfonylmethane] as the compound, how does the “percent cell viability (FIG. 6)” value [1] read?
**A.** increased the percent cell viability

**Q.** What about the “lens opacification by glucose (photographs, FIG. 2)” value (rat lens organ culture; seven days of culture) of the same compound?
**A.** mitigated lens opacification

**Q.** What about the “light transmission through the lens, relative to the untreated control (FIG. 3)” value (rat lens organ culture; seven days, glucose alone 45%) of the same compound?
**A.** 68%

**Q.** And the water solubility [2]?
**A.** 34 % w/v
